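All cell lines were grown in 96-well plates and treated with compound for 48 hours. The concentration for full growth arrest is given as TGI.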
Experiments:
Experiment in all cases: inhibition of tumour cell growth, NCI panel, 48 h
OVCAR-3 ovarian = test system: OVCAR-3 ovarian
MCF7 breast = test system: MCF7 breast
HCT-116 colon = test system: HCT-116 colon
SK-MEL-2 melanoma = test system: SK-MEL-2 melanoma
DU-145 prostate = test system: DU-145 prostate
786-0 renal = test system: 786-0 renal
HCC-2998 colon = test system: HCC-2998 colon
SF-295 CNS = test system: SF-295 CNS
SN12C renal = test system: SN12C renal
HCT-15 colon = test system: HCT-15 colon
K-562 leukemia = test system: K-562 leukemia

Structure (SMILES) | TGI (OVCAR-3 ovarian) [µM] | TGI (MCF7 breast) [µM] | TGI (HCT-116 colon) [µM] | TGI (SK-MEL-2 melanoma) [µM] | TGI (DU-145 prostate) [µM] | TGI (786-0 renal) [µM] | TGI (HCC-2998 colon) [µM] | TGI (SF-295 CNS) [µM] | TGI (SN12C renal) [µM] | TGI (HCT-15 colon) [µM] | TGI (K-562 leukemia) [µM]
CCN(CC)c1ccc(/C=C/C=C2C(=O)NC(=S)NC2=O)cc1 | > 72.6 | > 100 | > 100 | > 100 | > 100 | > 100 | > 100 | > 100 | > 100 | > 100 | > 75.1
CN(C)c1cccc(NC2=NCCO2)c1 | > 100 | > 100 | > 100 | 48.7 | > 100 | > 100 | > 100 | > 100 | > 100 | > 100 | > 100
Fc1cccc(F)c1C1SCc2nc3ccc(Cl)cc3n21 (stereo unspecified) | > 100 | > 100 | > 100 | > 100 | > 100 | > 100 | > 100 | > 100 | > 100 | > 100 | > 100
CN(C)c1cc[n+](-c2nc(/N=C(\[O-])C(F)(F)F)nc3c2ncn3C2CC(O)C(CO)O2)cc1 (stereo unspecified) | > 100 | > 100 | > 100 | > 100 | > 100 | > 100 | > 100 | > 100 | > 100 | > 100 | > 100
NC(Cc1ccc(S(=O)(=O)O)cc1)C(=O)NC(Cc1ccc(S(=O)(=O)O)cc1)C(=O)O (stereo unspecified) | > 100 | > 100 | > 100 | > 100 | > 100 | > 100 | > 100 | > 100 | > 100 | > 100 | > 100
CC1C(c2ccc(Cl)cc2)c2cc3c(cc2OC1N1CCOCC1)OCO3 (stereo unspecified) | > 100 | > 100 | > 100 | > 100 | > 100 | > 100 | > 100 | > 100 | > 100 | > 100 | > 100
O=[N+]([O-])c1ccc(O)c(/C=N/NC(=S)N2CCCCC2)c1 | > 100 | > 100 | 40.3 | 50.4 | > 52.5 | 13.8 | 34.1 | 28.7 | > 41.9 | 44.1 | > 100
CC1CC(=O)N(N(C)C)C(C#N)(C#N)C1(C#N)C#N (stereo unspecified) | 44.6 | > 100 | 51.7 | 59.3 | 32.5 | 28.6 | 34.9 | > 77.4 | 37 | 31.6 | > 66.3
C[C@H]1S[C@H](c2c(Cl)cccc2Cl)N2Cc3ccccc3N=C12 | 26.9 | 42.1 | 16.3 | 26.1 | 27.5 | 23 | 29.5 | 21.9 | > 100 | 33.7 | > 100
COC(OC)[C@@H]1OC[C@@H](O)[C@@H]1n1cnc2c(N)ncnc21 | > 100 | > 100 | > 100 | > 100 | > 100 | > 100 | > 100 | > 100 | > 100 | > 100 | > 100
O=C(CCc1ccccc1)On1c(-c2ccccc2)nc2ccccc2c1=S | > 100 | > 100 | 8.81 | 37.5 | > 100 | > 100 | 27.8 | > 100 | > 100 | 67.5 | > 100
CC(=O)N1CCn2c1nc1cc(Cl)ccc12 | > 100 | > 100 | > 100 | 92.4 | > 100 | > 100 | > 100 | > 100 | > 100 | > 100 | > 100
COc1cc(C2c3cc4c(cc3OC(N3CCNCC3)C2C)OCO4)cc(OC)c1OC (stereo unspecified) | 0.512 | 66.1 | 9.23 | > 40.6 | > 28.5 | 15.7 | 5.83 | 0.822 | > 53.2 | > 39.9 | 10.9
O=C(Nc1ccccc1)c1cc(S(=O)(=O)N2CCNNC2=O)c(S)cc1Cl | > 100 | > 100 | 95.5 | > 100 | > 100 | > 100 | > 100 | > 100 | > 100 | > 100 | > 100
CC(=N\N)/C(C)=N/N=C(C)/C(C)=N/N=C(C)/C(C)=N/N | > 100 | > 100 | > 100 | > 100 | > 100 | > 100 | > 100 | > 100 | > 100 | > 100 | > 100
CCOC(=O)Oc1ccc2c(c1)c(=O)c1c(NCCN(CC)CC)ccc3nnn2c31 | 19.7 | 12 | 12.6 | 27 | 8.29 | 13 | 17.4 | 19.5 | 15.1 | 16.6 | > 36.3

Source: PubChem BioAssay (NCI)
